31 compounds from US20170320870A1 (Medical Research Council Technology, priority 2009, published 2017) can be followed below.

The assay deals with T1, LRRK2 wild type (recombinant human, catalytic domain amino acids 970-2527, GST-tagged) (Homo sapiens, UniProt Q5S007).
T1 construct: The wild type used was recombinant human, catalytic domain (amino acids 970-2527) GST-tagged, expressed in insect cells; GST; purchased Invitrogen Corporation PV4873; host or cells: insect cells
The assay is described as follows: LRRK2 wild type protein kinase assay ([γ-33P] ATP, peptide substrate […]), IC50. The assay is classed as biochemical. The conditions noted are these: LRRK2 (variant not given); read-out: Potency score, LRRK2 IC50. An excerpt: All LRRK2 protein kinases were of human origin and were sourced from Invitrogen Corporation (Carlsbad, Calif. 92008 USA) unless otherwise indicated. The active mutant used was recombinant human, catalytic domain (amino acids 970-2527) containing a G2019S mutation, GST-tagged, expressed in insect cells (Invitrogen Cat#PV4881). The wild type used was recombinant human, catalytic domain (amino acids 970-2527) GST-tagged, expressed in insect cells (Invitrogen Cat#PV4873). The kinase dead mutant used was recombinant human, catalytic domain (amino acids 970-2527) containing a D1994A mutation, GST-tagged, expressed in insect cells (Invitrogen Cat#PM4041AE). No special measures were taken to activate any of the kinases.
All assays were carried out at room temperature (˜21° C.) and were linear with respect to time and enzyme concentration under the conditions used. Assays were performed for 180 min in a 96 well format. LRRK2 was present at a concentration of approximately 5 nM. The enzyme was diluted and assayed in 50 mM Tris-HCl pH7.5, 0.1 mM EGTA, 1 mM DTT and 10 mM MgCl2. The concentration of magnesium chloride in the assay was 10 mM. The [γ-33P] […] The peptide substrate in the assay was […] at 100 μM.
The assays were initiated with Mg/ATP and stopped by the addition of 25 μl/well 50% orthophosphoric acid. Reactions were harvested onto Whatman P81 Unifilter Plates (Fisher Scientific. Loughborough, LE115RG, UK. Cat# FDU-105-020U) using a Tomtec harvester. (Tomtec Hamden, Conn. 06514. USA) Plates were counted using a Perkin Elmer Top Count NX7. (Perkin Elmer, Shelton Conn. 06484-4794 USA)
IC50 values of inhibitors were determined after carrying out assays at 10 different concentrations of each compound in duplicate.

T1 sequence (Q5S007 970-2527): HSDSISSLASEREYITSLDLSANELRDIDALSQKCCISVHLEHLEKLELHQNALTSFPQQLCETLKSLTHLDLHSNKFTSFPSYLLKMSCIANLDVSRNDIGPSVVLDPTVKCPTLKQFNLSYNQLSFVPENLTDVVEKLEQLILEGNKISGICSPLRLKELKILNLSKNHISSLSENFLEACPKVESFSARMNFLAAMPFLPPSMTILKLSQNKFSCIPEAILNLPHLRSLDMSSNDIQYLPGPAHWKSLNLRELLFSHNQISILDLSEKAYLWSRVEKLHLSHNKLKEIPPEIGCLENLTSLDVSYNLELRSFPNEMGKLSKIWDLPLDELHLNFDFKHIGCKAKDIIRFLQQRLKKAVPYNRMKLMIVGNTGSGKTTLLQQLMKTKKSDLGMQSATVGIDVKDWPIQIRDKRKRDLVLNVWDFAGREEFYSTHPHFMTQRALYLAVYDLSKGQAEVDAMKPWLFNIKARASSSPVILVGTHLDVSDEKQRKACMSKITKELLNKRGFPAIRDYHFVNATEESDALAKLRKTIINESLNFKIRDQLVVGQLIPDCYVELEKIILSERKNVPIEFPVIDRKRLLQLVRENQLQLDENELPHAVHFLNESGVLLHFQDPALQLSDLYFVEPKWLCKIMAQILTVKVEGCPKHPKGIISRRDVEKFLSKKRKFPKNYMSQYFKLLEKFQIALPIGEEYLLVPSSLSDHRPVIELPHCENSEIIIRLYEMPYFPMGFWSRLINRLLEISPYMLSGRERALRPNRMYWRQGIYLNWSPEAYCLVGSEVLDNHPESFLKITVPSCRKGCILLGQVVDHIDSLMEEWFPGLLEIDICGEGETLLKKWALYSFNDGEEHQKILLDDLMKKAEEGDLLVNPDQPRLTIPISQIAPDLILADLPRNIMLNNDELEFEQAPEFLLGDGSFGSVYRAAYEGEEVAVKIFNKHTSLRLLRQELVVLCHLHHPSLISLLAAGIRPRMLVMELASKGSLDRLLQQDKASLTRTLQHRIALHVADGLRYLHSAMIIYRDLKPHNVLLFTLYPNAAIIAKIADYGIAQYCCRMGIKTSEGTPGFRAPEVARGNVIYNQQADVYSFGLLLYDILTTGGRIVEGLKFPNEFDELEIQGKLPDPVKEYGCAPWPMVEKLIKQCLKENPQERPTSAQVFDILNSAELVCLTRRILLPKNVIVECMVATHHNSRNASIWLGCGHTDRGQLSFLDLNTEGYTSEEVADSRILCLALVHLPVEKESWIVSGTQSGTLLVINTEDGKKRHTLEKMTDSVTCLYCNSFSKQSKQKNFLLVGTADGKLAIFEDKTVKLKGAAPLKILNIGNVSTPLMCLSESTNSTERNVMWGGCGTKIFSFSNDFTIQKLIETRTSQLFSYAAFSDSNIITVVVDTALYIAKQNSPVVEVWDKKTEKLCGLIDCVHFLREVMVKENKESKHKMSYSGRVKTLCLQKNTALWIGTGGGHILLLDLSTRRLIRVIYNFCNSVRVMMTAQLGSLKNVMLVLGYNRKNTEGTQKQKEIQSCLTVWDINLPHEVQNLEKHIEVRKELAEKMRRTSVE

As to `O=C(/C=C/c1n[nH]c2ccnc(OC3CCCCC3)c12)N1CCC[C@H](c2ccccc2)C1` [Example 261, (E)-3-(4-Cyclohexyloxy-1H-pyrazolo[4,3-c]pyridin-3-yl)-1-((R)-3-phenyl-piperidin-1-yl)-propenone], the IC50 was below 0.1 µM.
With `Cc1n[nH]c2ccnc(-c3ccoc3)c12` [Example 58, 4-Furan-3-yl-3-methyl-1H-pyrazolo[4,3-c]pyridine], the IC50 lay within 1 to 10 µM.
Next, `Cc1n[nH]c2ccnc(Nc3ccc(Cl)c(Cl)c3)c12` [Example 305, (3,4-Dichloro-phenyl)-(3-methyl-1H-pyrazolo[4,3-c]pyridin-4-yl)-amine]: 0.1 to 1 µM; `Cc1n[nH]c2ccnc(NCCc3ccc(Cl)cc3)c12` [Example 329, [2-(4-Chloro-phenyl)-ethyl]-(3-methyl-1H-pyrazolo[4,3-c]pyridin-4-yl)-amine]: 0.1 to 1 µM; `O=C(CCc1n[nH]c2ccnc(NC3CCCCC3)c12)N1CCCC(F)(F)C1` [Example 191, 3-(4-Cyclohexylamino-1H-pyrazolo[4,3-c]pyridin-3-yl)-1-(3,3-difluoro-piperidin-1-yl)-propan-1-one]: below 0.1 µM.
Turning to `Cc1n[nH]c2ccnc(OC3CCN(C)CC3)c12` [Example 116, 3-Methyl-4-(1-methyl-piperidin-4-yloxy)-1H-pyrazolo[4,3-c] pyridine], the IC50 lay within 1 to 10 µM.
With `Cc1n[nH]c2ccnc(-c3ccccc3F)c12` [Example 49, 4-(2-Fluoro-phenyl)-3-methyl-1H-pyrazolo[4,3-c]pyridine], the IC50 lay in the range of 0.1 to 1 µM.
On to `O=C(CCc1n[nH]c2ccnc(NC3CCCCC3)c12)N1CCCCC1c1cccnc1` (stereo not shown) [Example 208, 3-(4-Cyclohexylamino-1H-pyrazolo[4,3-c]pyridin-3-yl)-1-(3,4,5,6-tetrahydro-2H-[2,3′]bipyridinyl-1-yl)-propan-1-one], for which the IC50 is below 0.1 µM.
In the case of `CC(C)C(=O)Nc1ccc(CCc2n[nH]c3ccnc(NC4CCCCC4)c23)cc1` [Example 263, N-{4-[2-(4-Cyclohexylamino-1H-pyrazolo[4,3-c]pyridin-3-yl)-ethyl]-phenyl}-isobutyramide] it was 0.1 to 1 µM; in that of `c1ccc(-c2n[nH]c3ccnc(NC4CCCCC4)c23)cc1` [Example 136, Cyclohexyl-(3-phenyl-1H-pyrazolo[4,3-c]pyridin-4-yl)-amine], 0.1 to 1 µM; in that of `Cc1ccc(Nc2nccc3[nH]nc(C)c23)cc1` [Example 318, (4-Methyl-phenyl)-(3-methyl-1H-pyrazolo[4,3-c]pyridin-4-yl)-amine], below 0.1 µM.
Consider `Fc1cccc(Nc2nccc3[nH]ncc23)c1` [Example 132, (3-Fluoro-phenyl)-(1H-pyrazolo[4,3-c]pyridin-4-yl)-amine], for which the IC50 lay within 0.1 to 1 µM.
Take `CC1CN(C(=O)CCc2n[nH]c3ccnc(NC4CCCCC4)c23)CCN1C` (stereo not shown) [Example 244, 3-(4-Cyclohexylamino-1H-pyrazolo [4,3-c]pyridin-3-yl)-1-(3,4-dimethyl-piperazin-1-yl)-propan-1-one]: the IC50 lay in the range of 0.1 to 1 µM.
Next, `O=C(CCc1n[nH]c2ccnc(NC3CCCCC3)c12)N1CCN(Cc2ccc(F)cc2F)CC1` [Example 179, 3-(4-Cyclohexylamino-1H-pyrazolo[4,3-c]pyridin-3-yl)-1-[4-(2,4-difluoro-benzyl)-piperazin-1-yl]-propan-1-one]: 0.1 to 1 µM; `c1ccc(-c2nnc(CCc3n[nH]c4ccnc(NC5CCCCC5)c34)o2)cc1` [Example 216, Cyclohexyl-{3-[2-(5-phenyl-1,3,4-oxadiazol-2-yl)-ethyl]-1H-pyrazolo[4,3-c]pyridin-4-yl}-amine]: 0.1 to 1 µM; `CO[C@@H](C)COc1nccc2[nH]nc(C)c12` [Example 287]: 1 to 10 µM.
In the case of `c1cc2[nH]nc(-c3cnn(CCN4CCOCC4)c3)c2c(NC2CCCCC2)n1` [Example 233, Cyclohexyl-{3-[1-(2-morpholin-4-yl-ethyl)-1H-pyrazol-4-yl]-1H-pyrazolo[4,3-c]pyridin-4-yl}-amine] it was 0.1 to 1 µM; in that of `Cc1n[nH]c2ccnc(OCC3CCCCC3)c12` [Example 278, 4-Cyclohexyl-methoxy-3-methyl-1H-pyrazolo[4,3-c] pyridine], 0.1 to 1 µM; in that of `Cn1cc(-c2n[nH]c3ccnc(NC4CCCCC4)c23)cn1` [Example 162, Cyclohexyl-[3-(1-methyl-1H-pyrazolo-4-yl)-1H-pyrazolo[4,3-c]pyridin-4-yl]-amine], 0.1 to 1 µM.
In the case of `Cc1n[nH]c2ccnc(Nc3ccccc3Cl)c12` [Example 309, (2-Chloro-phenyl)-(3-methyl-1H-pyrazolo[4,3-c]pyridin-4-yl)-amine], the IC50 was 0.1 to 1 µM.
Next, `COCCNC(=O)CCc1n[nH]c2ccnc(NC3CCCCC3)c12` [Example 211, 3-(4-Cyclohexylamino-1H-pyrazolo[4,3-c]pyridin-3-yl)-N-(2-methoxy-ethyl)-propionamide]: 1 to 10 µM.
In the case of `Cc1n[nH]c2ccnc(NC(C)C(C)C)c12` (stereo not shown) [Example 27, (1,2-Dimethyl-propyl)-(3-methyl-1H-pyrazolo[4,3-c]pyridin-4-yl)-amine] it was 0.1 to 1 µM; in that of `Cn1cnc(C(=O)Nc2ccc(CCc3n[nH]c4ccnc(NC5CCCCC5)c34)cc2)c1` [Example 269, 1-Methyl-1H-imidazole-4-carboxylic acid {4-[2-(4-cyclohexylamino-1H-pyrazolo[4,3-c]pyridin-3-yl)-ethyl]-phenyl}-amide], below 0.1 µM.
For `COc1ccc(-c2n[nH]c3ccnc(NC4CCCCC4)c23)cc1Cl` [Example 140, [3-(3-Chloro-4-methoxy-phenyl)-1H-pyrazolo[4,3-c]pyridin-4-yl]-cyclohexyl-amine], the IC50 fell in the range of 0.1 to 1 µM.
In the case of `Cc1n[nH]c2ccnc(NCCc3ccccc3Cl)c12` [Example 330, [2-(2-Chloro-phenyl)-ethyl]-(3-methyl-1H-pyrazolo[4,3-c]pyridin-4-yl)-amine] it was below 0.1 µM.
Consider `Cc1n[nH]c2ccnc(Nc3ccc(N4CCN(C)CC4)cc3)c12` [Example 86, [4-(4-Methyl-piperazin-1-yl)-phenyl]-(3-methyl-1H-pyrazolo[4,3-c]pyridin-4-yl)-amine], for which the IC50 was in the range of 1 to 10 µM.
Regarding `Cc1cccc(Nc2nccc3[nH]nc(C)c23)c1` [Example 319, (3-Methyl-phenyl)-(3-methyl-1H-pyrazolo[4,3-c]pyridin-4-yl)-amine], the IC50 was in the range of 0.1 to 1 µM.
In the case of `Cc1n[nH]c2ccnc(NCc3cccc(Cl)c3)c12` [Example 314, (3-Chloro-benzyl)-(3-methyl-1H-pyrazolo[4,3-c]pyridin-4-yl)-amine] it was 1 to 10 µM; in that of `c1ccc(Cn2cc(-c3n[nH]c4ccnc(NC5CCCCC5)c34)cn2)nc1` [Example 234, Cyclohexyl-[3-(1-pyridin-2-ylmethyl-1H-pyrazol-4-yl)-1H-pyrazolo[4,3-c]pyridin-4-yl]-amine], 0.1 to 1 µM.
Turning to `CN1CCOc2cc(-c3n[nH]c4ccnc(NC5CCCCC5)c34)ccc21` [Example 161, Cyclohexyl-[3-(4-methyl-3,4-dihydro-2H-1,4-benzoxazin-7-yl)-1H-pyrazolo[4,3-c]pyridin-4-yl]-amine], the IC50 fell in the range of 0.1 to 1 µM.
In the case of `c1cncc(-c2n[nH]c3ccnc(NC4CCCCC4)c23)c1` [Example 135, Cyclohexyl-(3-pyridin-3-yl-1H-pyrazolo[4,3-c]pyridin-4-yl)-amine] it was 0.1 to 1 µM.

What is called IC50 is the concentration that gives 50% inhibition.
